Test system: T-47D spheroids with HUVEC/MSC, viability
Experiment: Anticancer human tumor T-47D cell line growth inhibition [PI3K];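 further: spheroids exposed to agents for seven days before reading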;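 on viability, T/C: percent of DMSO vehicle control luminescence so 100% = untreated growth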
Conditions: for IC50: curve of first compound; for viability, T/C: stronger effect = lower value
Description: Combinatorial screen of targeted agents with the PI3K inhibitors inavolisib, alpelisib, duvelisib, and copanlisib in multi-cell type tumor spheroids
A high-throughput screen of multi-cell type tumor spheroids was designed to identify active combinations of targeted small molecules and PI3K pathway inhibitors. Complex spheroids include a stromal component modeled by human endothelial cells (HUVEC) and fibroblasts modeled by human mesenchymal stem cells (MSCs). The concentration ranges selected for each drug and investigational agent were based upon clinically achievable concentrations if the clinical Cmax of the agent was known.
Compounds. The drugs and investigational agents: inavolisib (NSC800729), alpelisib (NSC765974), duvelisib (NSC772469), copanlisib (NSC816437), ipatasertib (NSC767898), afuresertib (NSC778305), talazoparib (NSC767125), sapanisertib (NSC764658), selumetinib (NSC741078), tovorafenib (DAY101, NSC766906), vemurafenib (NSC761431), ravoxertinib (NSC781343), sotorasib (NSC818433), MRTX1133 (NSC 836407), abemaciclib (NSC 768073), palbociclib (NSC758247), venetoclax (NSC 766270), SY5609 (NSC837396), enzalutamide (NSC755605), and darolutamide (NSC825331), were obtained from the National Cancer Institute (NCI) Developmental Therapeutics Program Chemical Repository. The FDA-approved anticancer drug set is available from the NCI Developmental Therapeutics Program. […] The stock solutions were prepared in dimethyl sulfoxide (DMSO, Sigma-Aldrich, St. Louis, MO, cat. D2650) at 800-fold the tested concentration and stored at -70 degrees C prior to their use. All drugs and investigational agents were tested over a range starting from a high concentration at or near the clinical Cmax and decreasing in half-log increments. If the clinical Cmax for an agent had not been determined, the highest concentration tested was 10 microM.
Cell Culture. All cells were maintained in an incubator at 37 degrees C and 5% CO2 with 95% humidity. The PDC lines were cultured according to standard operating procedures established by the NCI PDMR (https://pdmr.cancer.gov/sops/default.htm). All PDCs were thawed and cultured in Matrigel-coated flasks prepared with a working solution of 1X Ham's F-12 nutrient mix, without supplementation (Invitrogen, Waltham, MA, cat. 11765054), 100 U/mL penicillin-streptomycin (Invitrogen, cat. 15140122), and 2.5% Matrigel (Corning Inc., Corning, NY, cat. 354248) for the first three passages. The 354836-022-R-J1-PDC, 475296-252-R-J1-PDC, and 997726-040-R-J2-PDC lines were cultured in 6A media, which includes advanced DMEM/F-12 (Thermo Fisher Scientific, cat. 12634028), 10 mM HEPES (Thermo Fisher Scientific, cat. 15630080), 1X GlutaMAX supplement (Thermo Fisher Scientific, cat. 35050061), 0.1 mg/mL primocin (InvivoGen, San Diego, CA, cat. ant-pm-2), 10% defined fetal bovine serum, heat inactivated (HyClone Laboratories Inc., Logan, UT, cat. SH30070.03HI), 50% L-WRN conditioned media (ATCC, cat. CRL-3276), 1.25 mM N-Acetyl-L-cysteine (Sigma-Aldrich, cat. A9165), 10 mM nicotinamide (Sigma-Aldrich, cat. N0636), 1X B-27 supplement (Thermo Fisher Scientific, cat. 17504044), 1X N-2 supplement (Thermo Fisher Scientific, cat. 17502048), and 10 microM Y-27632 dihydrochloride (Tocris Bioscience, Bristol, United Kingdom, cat. 1254). The 624824-186-R-J2-PDC line was cultured in 6C/Colon 1B media, which includes all 6A media components plus 50 ng/mL human EGF recombinant protein (Thermo Fisher Scientific, cat. PHG0311). […]

[1] = second compound 0.0316 µM, first compound 0.0316 µM
[2] = second compound 0.0316 µM, first compound 0.1 µM
[3] = second compound 0.0316 µM, first compound 0.316 µM
[4] = second compound 0.0316 µM, first compound 1 µM
[5] = second compound 0.0316 µM, first compound 3.16 µM
[6] = second compound 0.0316 µM, first compound 10 µM
[7] = second compound 0.1 µM, first compound 0.0316 µM
[8] = second compound 0.1 µM, first compound 0.1 µM
[9] = second compound 0.1 µM, first compound 0.316 µM
[10] = second compound 0.1 µM, first compound 1 µM
[11] = second compound 0.1 µM, first compound 3.16 µM
[12] = second compound 0.1 µM, first compound 10 µM
[13] = second compound 0.316 µM, first compound 0.0316 µM
[14] = second compound 0.316 µM, first compound 0.1 µM
[15] = second compound 0.316 µM, first compound 0.316 µM
[16] = second compound 0.316 µM, first compound 1 µM
[17] = second compound 0.316 µM, first compound 3.16 µM
[18] = second compound 0.316 µM, first compound 10 µM
[19] = second compound 1 µM, first compound 0.0316 µM
[20] = second compound 1 µM, first compound 0.1 µM
[21] = second compound 1 µM, first compound 0.316 µM
[22] = second compound 1 µM, first compound 1 µM
[23] = second compound 1 µM, first compound 3.16 µM
[24] = second compound 1 µM, first compound 10 µM

C#Cc1c(F)ccc2cc(O)cc(-c3ncc4c(N5CC6CCC(C5)N6)nc(OCC56CCCN5CC(F)C6)nc4c3F)c12 (centres undefined) + Cc1nc(NC(=O)N2CCCC2C(N)=O)sc1-c1ccnc(C(C)(C)C(F)(F)F)c1
IC50 (second compound 0.0316 µM): > 10 µM | IC50 (second compound 0.1 µM): > 10 µM | IC50 (second compound 0.316 µM): > 10 µM | IC50 (second compound 1 µM): > 10 µM | IC50 (second compound 3.16 µM): > 10 µM | IC50 (second compound 10 µM): < 0.0316 µM | viability, T/C [1]: 94.8% | viability, T/C [2]: 91.4% | viability, T/C [3]: 99% | viability, T/C [4]: 87.8% | viability, T/C [5]: 99.6% | viability, T/C [6]: 74.8% | viability, T/C [7]: 98.8% | viability, T/C [8]: 72.2% | viability, T/C [9]: 73.4% | viability, T/C [10]: 80.1% | viability, T/C [11]: 103% | viability, T/C [12]: 89.4% | viability, T/C [13]: 90.5% | viability, T/C [14]: 71.2% | viability, T/C [15]: 80.3% | viability, T/C [16]: 97.8% | viability, T/C [17]: 86% | viability, T/C [18]: 84.5% | viability, T/C [19]: 74.2% | viability, T/C [20]: 84.7% | viability, T/C [21]: 69.5% | viability, T/C [22]: 82.7% | viability, T/C [23]: 82.8% | viability, T/C [24]: 77.8% | viability, T/C (second compound 3.16 µM, first compound 0.0316 µM): 63.4% | viability, T/C (second compound 3.16 µM, first compound 0.1 µM): 65.7% | viability, T/C (second compound 3.16 µM, first compound 0.316 µM): 61.1% | viability, T/C (second compound 3.16 µM, first compound 1 µM): 54% | viability, T/C (second compound 3.16 µM, first compound 3.16 µM): 54.2% | viability, T/C (second compound 3.16 µM, first compound 10 µM): 60.8% | viability, T/C (second compound 10 µM, first compound 0.0316 µM): 38.4% | viability, T/C (second compound 10 µM, first compound 0.1 µM): 40.4% | viability, T/C (second compound 10 µM, first compound 0.316 µM): 40.8% | viability, T/C (second compound 10 µM, first compound 1 µM): 31.7% | viability, T/C (second compound 10 µM, first compound 3.16 µM): 33% | viability, T/C (second compound 10 µM, first compound 10 µM): 40.1%

Cn1ncc(Cl)c1-c1cc(C(=O)NC(CN)Cc2cccc(F)c2)sc1Cl (centres undefined) + COc1c(OCCCN2CCOCC2)ccc2c3n(c(=NC(=O)c4cnc(N)nc4)nc12)CCN3
IC50 (second compound 0.00316 µM): > 10 µM | IC50 (second compound 0.01 µM): > 10 µM | IC50 (second compound 0.0316 µM): > 10 µM | IC50 (second compound 0.1 µM): < 0.0316 µM | IC50 (second compound 0.316 µM): < 0.0316 µM | IC50 (second compound 1 µM): < 0.0316 µM | viability, T/C (second compound 0.00316 µM, first compound 0.0316 µM): 105% | viability, T/C (second compound 0.00316 µM, first compound 0.1 µM): 102% | viability, T/C (second compound 0.00316 µM, first compound 0.316 µM): 82.3% | viability, T/C (second compound 0.00316 µM, first compound 1 µM): 77.4% | viability, T/C (second compound 0.00316 µM, first compound 3.16 µM): 66.2% | viability, T/C (second compound 0.00316 µM, first compound 10 µM): 77.7% | viability, T/C (second compound 0.01 µM, first compound 0.0316 µM): 108% | viability, T/C (second compound 0.01 µM, first compound 0.1 µM): 99.8% | viability, T/C (second compound 0.01 µM, first compound 0.316 µM): 80.5% | viability, T/C (second compound 0.01 µM, first compound 1 µM): 70.3% | viability, T/C (second compound 0.01 µM, first compound 3.16 µM): 70% | viability, T/C (second compound 0.01 µM, first compound 10 µM): 77.7% | viability, T/C [1]: 94.4% | viability, T/C [2]: 70.6% | viability, T/C [3]: 61.5% | viability, T/C [4]: 65% | viability, T/C [5]: 65.1% | viability, T/C [6]: 73.2% | viability, T/C [7]: 48.8% | viability, T/C [8]: 46.5% | viability, T/C [9]: 39.4% | viability, T/C [10]: 39.2% | viability, T/C [11]: 55.7% | viability, T/C [12]: 48.7% | viability, T/C [13]: 17.2% | viability, T/C [14]: 20.4% | viability, T/C [15]: 19.1% | viability, T/C [16]: 19.6% | viability, T/C [17]: 24.3% | viability, T/C [18]: 39.5% | viability, T/C [19]: 7.39% | viability, T/C [20]: 7.86% | viability, T/C [21]: 6.72% | viability, T/C [22]: 6.88% | viability, T/C [23]: 15.6% | viability, T/C [24]: 10.9%
